Patent US7601688B2, “Methods of reducing hypoglycemic episodes in the treatment of diabetes mellitus” (Biocon Limited, priority 2001, dated 2009)

Columns and labels:
[1] = Dose titration study of oral HIM2 vs. insulin lispro: glucodynamics; format: in vivo, human; conditions: adult type 1 diabetes patients; for Day 3 - 2 Hour Post-prandial Glucose, Breakfast (Mean ± SEM) / Day 3 - 2 Hour Post-prandial Glucose, Dinner (Mean ± SEM) / Day 3 - 2 Hour Post-prandial Glucose, Evening Snack (Mean ± SEM) / Day 3 - 2 Hour Post-prandial Glucose, Lunch (Mean ± SEM): basal CSII, HIM2 p.o., Lispro s.c., titrated doses; for Day 3 - 2 Hour Post-prandial Glucose, Breakfast (Mean ± SEM): after breakfast, p = 0.28; for Day 3 - 2 Hour Post-prandial Glucose, Dinner (Mean ± SEM): after dinner, p = 0.07; for Day 3 - 2 Hour Post-prandial Glucose, Evening Snack (Mean ± SEM): after evening snack, p = 0.24; for Day 3 - 2 Hour Post-prandial Glucose, Lunch (Mean ± SEM): after lunch, p = 0.29; for Day 3 - Daily Mean (±SEM) Plasma Glucose AUC: total 24-hour AUC divided by 1440 (time-adjusted), p = 0.46; for Patients with average 2-hour post-prandial glucose levels consistent with pre-study values (range 80-250 mg/dL): Fisher's exact test p=0.42
Method: A 3-day inpatient dosing period was performed.
Assays: Plasma glucose: glucose oxidase-based enzymatic assay. Plasma insulin: RIA method (Linco Research, St. Charles, Mo.). […] (2) Daily mean plasma glucose on Day 3. (3) Postprandial glucose at 2 hours during Day 3. (4) Number of rescue interventions (hypoglycemia).

[2] = in vivo
Method: Study Objectives: To evaluate whether HIM2 doses, when titrated, are able to maintain 2-hour post-prandial blood glucose levels consistent with the pre-study range between 80-250 mg/dL as compared to insulin lispro and to evaluate the safety profile for HIM2. Patient Population: Adult patients with type 1 diabetes participated in the study. […] Design and Methods: A multicenter, dose titration, randomized, insulin lispro controlled, parallel, open-label study was conducted. A 2-day inpatient period was provided to establish optimal basal rate. A 5-7 day run-in period (maintained optimized basal rate; insulin requirements, episodes of hypoglycemia or hyperglycemia, dietary intake and physical activity recorded) was provided. A 3-day inpatient dosing period was performed. Carbohydrate intake was individualized (40% of total calories, equally divided among 4 meals during each study day). Basal insulin (CSII) was unchanged throughout the 3-day dosing period. Initial Doses: HIM2 0.25 mg/kg (7.2 U/kg; 1 mg of insulin=28.7 units of insulin), p.o., in a formulation shown in Table 1, 10 minutes prior to meal, HIM2 0.125 mg/kg (3.6 U/kg; 1 mg of insulin=28.7 units of insulin), p.o., in a formulation shown in Table 1, 120 minutes post meal, and Insulin lispro (commercially available from Eli Lilly & Co., Indianapolis, Ind.) (hereinafter “Lispro”), 0.1 U/kg (0.003 mg/kg; 1 mg of insulin=28.7 units of insulin), s.c., 15 minutes prior to meal. Doses were adjusted as necessary with the next scheduled dose according to the dose titration rules described in Table 2; however, no dose titration was allowed during study day 3.
Assays: Plasma glucose: glucose oxidase-based enzymatic assay. Plasma insulin: RIA method (Linco Research, St. Charles, Mo.). Efficacy Variables: The following variables were evaluated to determine efficacy of HIM2 compared to Lispro. (1) Percentage of patients able to maintain 2-hour postprandial blood glucose levels consistent with pre-study values between 80-250 mg/dL on Day 3 (HIM2 compared to insulin lispro). (2) Daily mean plasma glucose on Day 3. (3) Postprandial glucose at 2 hours during Day 3. (4) Number of rescue interventions (hypoglycemia). Safety Variables: Adverse events, vital signs, clinical chemistry, hematology, urinalysis, and ECG monitoring. Data Analysis: A comparison of proportion of patients within target glucose range (80-250 mg/dL) was analyzed. The daily mean plasma glucose AUC was analyzed using a t-test. The Day 3-2 hour post-prandial glucose was analyzed using a t-test. Comparison of rates for hypoglycemic events was analyzed using glucose 50-60 mg/dL, glucose ≦50 mg/mL, and number of rescue interventions. Demographics: A total of 31 patients were enrolled and analyzed in this study (15 M/16 F).

| Substance | Day 3 - 2 Hour Post-prandial Glucose, Breakfast (Mean ± SEM) [1] | Day 3 - 2 Hour Post-prandial Glucose, Dinner (Mean ± SEM) [1] | Day 3 - 2 Hour Post-prandial Glucose, Evening Snack (Mean ± SEM) [1] | Day 3 - 2 Hour Post-prandial Glucose, Lunch (Mean ± SEM) [1] | Day 3 - Daily Mean (±SEM) Plasma Glucose AUC [1] | Patients with average 2-hour post-prandial glucose levels consistent with pre-study values (range 80-250 mg/dL) [1] | Documented serious adverse event for hypoglycemia [2] | Hypoglycemic events that required rescue intervention [2] | Number and frequency of gastrointestinal side effects (primarily unpleasant taste and diarrhea) [2] | Number of hypoglycemic events (overall assessment) [2] |
| --- | --- | --- | --- | --- | --- | --- | --- | --- | --- | --- |
| Insulin lispro [reference compound] | 158.2 ± 24.3 | 195.3 ± 20.6 | 197.9 ± 20.4 | 202.6 ± 16.1 | 170.6 ± 11.8 mg/dL | 83% | – | – | – | – |
| Lys^B29-Hexyl-PEG7-Oligomer-Conjugated Insulin [HIM2] | 192.3 ± 19.4 | 249.0 ± 19.3 | 231.4 ± 18.4 | 232.9 ± 21.0 | 182.0 ± 10.0 mg/dL | 63% | One | significantly lower | occurred more frequently | trend toward fewer events |
